Measured values as given in patent US20080300298A1, “Honokiol Derivates For the Treatment of Proliferative Disorders” (priority 2005, published 2008).
Read-outs that look alike come from different tables or passages of the source.

Columns and labels:
RAW 264.7 cells = test: Osteoclast differentiation assay (RANKL); type: cell-based, mouse; conditions: RAW 264.7, 5 mM (printed) honokiol 12 h, 5 nM RANKL
Procedure: (A) RAW 264.7 cells (1×10^4) were plated overnight, pretreated with 5 mM honokiol for 12 h, and then treated with 5 nM RANKL. At 4 and 5 days later, cells were stained for TRAP and evaluated for osteoclastogenesis. Photographs were taken after 5 days of incubation with RANKL. (B) The numbers of TRAP-positive multinucleated osteoclasts (>3 nuclei) per well were counted. (C) H1299 cells (2.5×10^4) were seeded into the upper wells of a Matrigel invasion chamber overnight in the absence of serum, pretreated with […] honokiol for 12 h, treated with 1 nM TNF for 24 h in the presence of 1% serum, and then subjected to invasion assay. The value for no honokiol and no TNF was set to 1.0.
Osteoclast differentiation assay. […] At days 4 and 5, the cells were stained for tartrate-resistant acid phosphatase (TRAP) expression, as previously described (18) using an acid phosphatase kit (Sigma-Aldrich), and the TRAP-positive multinucleated osteoclasts (>3 nuclei) per well were counted.
Honokiol suppresses RANKL-induced osteoclastogenesis. Because RANKL, a member of the TNF superfamily, induces osteoclastogenesis through the activation of NF-kB (Abu-Amer, Y., et al. 1997 Nat. Med. 3:1189-1190), whether honokiol can suppress RANKL-induced osteoclastogenesis was assessed. […]

HUVEC = test: direct toxicity against HUVEC (colorimetric assay); type: cell-based, human; conditions: 8 ug/ml
MM.1S cells = test: cells; type: cell-based; conditions: Homo sapiens, MM1.S, read-out: percentage of nonviable cells by trypan blue exclusion
Procedure: Assessment of HNK-induced cytotoxicity against patient MM cells: Cytotoxicity of HNK against fresh MM cells was determined as previously determined, see, for example, Mitsiades et al Cancer Cell. 2004; 5:221-230. Fresh MNCs separated from bone marrow samples derived from patients with MM were incubated with PE-conjugated anti-CD138 antibody and/or FITC-conjugated anti-CD38 antibody (BD Biosciences, San Diego, Calif.) for 30 minutes on ice and washed, followed by analysis using EPICS XL flow cytometer (Beckman Coulter, Hialeah, Fla.). A CD38^high fraction enriched for MM cells was determined in side and forward scatter panel in each case. The expression of CD138 on gated cells was also evaluated. After HNK-treatment for 48 h, cells were harvested and percentage of CD38^high cells with or without HNK-treatment was evaluated. […] Cells were stained with propidium iodide (PI; 50 μg/mL; Sigma, St Louis, Mo.), and cell cycle profile was determined by using the program M software on an EPICS XL flow cytometer (Beckman Coulter, Hialeah, Fla.). […] Fluorescence intensity of TUNEL and APO 2.7 staining was determined using on EPICS XL flow cytometer. Cytotoxicity was determined by trypan blue exclusion assay. […] Cell growth and induction of apoptosis were determined both by colorimetric assay and now cytometric detection of APO2.7 after 48 h treatment. […] DNA synthesis was measured by [^3H]-thymidine uptake. […]

C=CCc1ccc(O)c(-c2ccc(O)c(CC=C)c2)c1 [HNK, Honokiol]
RANKL-induced osteoclast differentiation (TRAP) (RAW 264.7 cells): suppressed it
viability of HUVEC cells (HUVEC): did not affect the viability of HUVEC cells
cytotoxicity at 10 µg/mL (MM.1S cells; 24 h): 30.7 ± 5.5%
cytotoxicity at 10 µg/mL (MM.1S cells): 27.6 ± 6.4%
